Assay [1] relates to HEK293 cells. In words: Preliminary screening as mRNA vectors, EGFP mRNA transfection of HEK293 cells. The class given is cell-based. To be noted: HEK293 cells, 96-well plates, EGFP mRNA 50 ng per well; percentage of GFP fluorescent cells relative to total number of cells (Hoechst). The gist of the method: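 Screening format: EGFP mRNA transfection (50 ng/well) into HEK293 in 10% FBS-supplemented DMEM. Percent green fluorescent cells, normalised to Hoechst nuclear count, gave the value; Lipofectamine2000 was the reference transfectant.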

The test system of assay [2] is HEK293 cells. In words: Preliminary screening as DNA vectors, GFP transfection of HEK293 cells. The class given is cell-based. To be noted: HEK293 cells; lipid/DOPE liposome with 75 ng plasmid DNA (psin-EGFP-IRES-Puro); number of cells expressing GFP divided by total number of nuclei (Hoechst). The gist of the method: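 First, amino lipid and DOPE were vortexed in sodium acetate buffer (pH 5.6) to form liposomes. Next, these were held with 75 ng EGFP plasmid at room temperature for 30 min. Finally, HEK293 cells were added, cultured at 37° C., Hoechst-stained, and GFP+/total nuclei scored by imaging.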

Turning to `CCCCCCCCCCCCN(CCCCCCCCCCCC)c1nc(NCCN(CC)CC)nc(N(CCCCCCCCCCCC)CCCCCCCCCCCC)n1` [2N12^2N12D7], in assay [1], the “Absolute mRNA transfection efficiency in HEK293 cells” value (“Absolute mRNA transfection efficiency” for short) is on record as 0.3%. Besides, the “Absolute DNA transfection efficiency in HEK293 cells” value (from here on “Absolute DNA transfection efficiency”) in assay [2] is given as 0.0%.
Taken in the same sequence, the figures for `CCCCCCCCCCCCN(CCCCCCCCCCCC)c1nc(NCCCN2CCOCC2)nc(N(CCCCCCCCCCCC)CCCCCCCCCCCC)n1` [2N12^2N12D8] were 0.0% and 0.1%.
Taken in the same sequence, the figures for `CCCCCCCCCCCCN(CCCCCCCCCCCC)c1nc(NCCCN2CCN(C)CC2)nc(N(CCCCCCCCCCCC)CCCCCCCCCCCC)n1` [2N12^2N12D9] were 0.0% and 0.2%.
On the same counts, the results for `CCCCCCCCCCCCN(CCCCCCCCCCCC)c1nc(NCC2CCN(C)CC2)nc(N(CCCCCCCCCCCC)CCCCCCCCCCCC)n1` [2N12^2N12D10] are 3.3% and 1.8%.
With `CCCCCCNc1nc(NCCCCCC)nc(NCCN(C)C)n1` [Compound N6N6D1], in assay [1], the “Absolute mRNA transfection efficiency” value was found to be 0.0%. The “Absolute DNA transfection efficiency” value in assay [2] was found to be 0.0%.
On to `CCCCCCNc1nc(NCCCCCC)nc(NCCN2CCOCC2)n1` [Compound N6N6D2], for which the “Absolute mRNA transfection efficiency” value in assay [1] amounted to 0.0%. Besides, the “Absolute DNA transfection efficiency” value in assay [2] is listed as 0.0%.
With `CCCCCCNc1nc(NCCCCCC)nc(NCCN2CCCC2)n1` [Compound N6N6D3], the “Absolute mRNA transfection efficiency” value in assay [1] came out at 0.3%. The “Absolute DNA transfection efficiency” value in assay [2] came out at 0.2%.
On the same counts, the results for `CCCCCCNc1nc(NCCCCCC)nc(NCCN2CCCCC2)n1` [Compound N6N6D4] are 0.1% and 0.0%.
For `CCCCCCNc1nc(NCCCCCC)nc(NCCN2CCN(C)CC2)n1` [Compound N6N6D5], the “Absolute mRNA transfection efficiency” value in assay [1] came out at 0.0%. In addition, in assay [2], the “Absolute DNA transfection efficiency” value turned out to be 0.0%.
For `CCCCCCNc1nc(NCCCCCC)nc(NCCCN(C)C)n1` [Compound N6N6D6], the “Absolute mRNA transfection efficiency” value in assay [1] is listed as 0.0%. Further, in assay [2], the “Absolute DNA transfection efficiency” value was found to be 0.0%.
For `CCCCCCNc1nc(NCCCCCC)nc(NCCN(CC)CC)n1` [Compound N6N6D7], the “Absolute mRNA transfection efficiency” value in assay [1] is given as 0.0%. Moreover, in assay [2], the “Absolute DNA transfection efficiency” value is on record as 0.0%.
For the molecule `CCCCCCNc1nc(NCCCCCC)nc(NCCCN2CCOCC2)n1` [Compound N6N6D8], the “Absolute mRNA transfection efficiency” value in assay [1] is 0.0%. Further, the “Absolute DNA transfection efficiency” value in assay [2] stood at 0.0%.
For `CCCCCCNc1nc(NCCCCCC)nc(NCCCN2CCN(C)CC2)n1` [Compound N6N6D9], in assay [1], the “Absolute mRNA transfection efficiency” value is 0.2%. Further, the “Absolute DNA transfection efficiency” value in assay [2] is given as 0.0%.
On the same counts, the results for `CCCCCCNc1nc(NCCCCCC)nc(NCC2CCN(C)CC2)n1` [Compound N6N6D10] are 0.0% and 0.0%.
On the same counts, the results for `CCCCCCCNc1nc(NCCCCCC)nc(NCCN(C)C)n1` [Compound N6N7D1] are 0.1% and 0.0%.
On the same counts, the results for `CCCCCCCNc1nc(NCCCCCC)nc(NCCN2CCOCC2)n1` [Compound N6N7D2] are 0.4% and 0.0%.
For `CCCCCCCNc1nc(NCCCCCC)nc(NCCN2CCCC2)n1` [Compound N6N7D3], the “Absolute mRNA transfection efficiency” value in assay [1] came to 0.0%. Further, the “Absolute DNA transfection efficiency” value in assay [2] stood at 0.4%.
On the same counts, the results for `CCCCCCCNc1nc(NCCCCCC)nc(NCCN2CCCCC2)n1` [Compound N6N7D4] are 0.0% and 0.0%.
On the same counts, the results for `CCCCCCCNc1nc(NCCCCCC)nc(NCCN2CCN(C)CC2)n1` [Compound N6N7D5] are 0.4% and 0.0%.
`CCCCCCCNc1nc(NCCCCCC)nc(NCCCN(C)C)n1` [Compound N6N7D6]: the “Absolute mRNA transfection efficiency” value in assay [1] is given as 0.1%. Moreover, in assay [2], the “Absolute DNA transfection efficiency” value is 0.0%.
On the same counts, the results for `CCCCCCCNc1nc(NCCCCCC)nc(NCCN(CC)CC)n1` [Compound N6N7D7] are 0.0% and 0.0%.
For `CCCCCCCNc1nc(NCCCCCC)nc(NCCCN2CCOCC2)n1` [Compound N6N7D8], in assay [1], the “Absolute mRNA transfection efficiency” value is 0.0%. In assay [2], the “Absolute DNA transfection efficiency” value is recorded as 0.0%.
Consider `CCCCCCCNc1nc(NCCCCCC)nc(NCCCN2CCN(C)CC2)n1` [Compound N6N7D9], for which the “Absolute mRNA transfection efficiency” value in assay [1] came to 0.0%. For the same molecule, the “Absolute DNA transfection efficiency” value in assay [2] amounted to 0.0%.
As for `CCCCCCCNc1nc(NCCCCCC)nc(NCC2CCN(C)CC2)n1` [Compound N6N7D10], the “Absolute mRNA transfection efficiency” value in assay [1] is listed as 0.0%. Also, in assay [2], the “Absolute DNA transfection efficiency” value is reported as 0.0%.
`CCCCCCCCNc1nc(NCCCCCC)nc(NCCN(C)C)n1` [Compound N6N8D1]: in assay [1], the “Absolute mRNA transfection efficiency” value stood at 0.0%. Also, the “Absolute DNA transfection efficiency” value in assay [2] was 0.0%.
Consider `CCCCCCCCNc1nc(NCCCCCC)nc(NCCN2CCOCC2)n1` [Compound N6N8D2], for which the “Absolute mRNA transfection efficiency” value in assay [1] was 0.1%. Also, the “Absolute DNA transfection efficiency” value in assay [2] was determined as 0.0%.
On the same counts, the results for `CCCCCCCCNc1nc(NCCCCCC)nc(NCCN2CCCC2)n1` [Compound N6N8D3] are 0.4% and 0.1%.
Taken in the same sequence, the figures for `CCCCCCCCNc1nc(NCCCCCC)nc(NCCN2CCCCC2)n1` [Compound N6N8D4] were 0.0% and 0.0%.
Taken in the same sequence, the figures for `CCCCCCCCNc1nc(NCCCCCC)nc(NCCN2CCN(C)CC2)n1` [Compound N6N8D5] were 0.0% and 0.0%.
In the case of `CCCCCCCCNc1nc(NCCCCCC)nc(NCCCN(C)C)n1` [Compound N6N8D6], the “Absolute mRNA transfection efficiency” value in assay [1] is on record as 0.0%. For the same molecule, in assay [2], the “Absolute DNA transfection efficiency” value came out at 0.1%.
On the same counts, the results for `CCCCCCCCNc1nc(NCCCCCC)nc(NCCN(CC)CC)n1` [Compound N6N8D7] are 0.1% and 0.0%.
As for `CCCCCCCCNc1nc(NCCCCCC)nc(NCCCN2CCOCC2)n1` [Compound N6N8D8], the “Absolute mRNA transfection efficiency” value in assay [1] is on record as 0.0%. The “Absolute DNA transfection efficiency” value in assay [2] amounted to 0.0%.
Consider `CCCCCCCCNc1nc(NCCCCCC)nc(NCCCN2CCN(C)CC2)n1` [Compound N6N8D9], for which, in assay [1], the “Absolute mRNA transfection efficiency” value turned out to be 0.0%. The “Absolute DNA transfection efficiency” value in assay [2] is 0.0%.
As to `CCCCCCCCNc1nc(NCCCCCC)nc(NCC2CCN(C)CC2)n1` [Compound N6N8D10], the “Absolute mRNA transfection efficiency” value in assay [1] was determined as 0.0%. Also, the “Absolute DNA transfection efficiency” value in assay [2] is on record as 0.0%.
For `CCCCCCCCCNc1nc(NCCCCCC)nc(NCCN(C)C)n1` [Compound N6N9D1], in assay [1], the “Absolute mRNA transfection efficiency” value turned out to be 0.0%. Further, the “Absolute DNA transfection efficiency” value in assay [2] worked out at 0.0%.
As to `CCCCCCCCCNc1nc(NCCCCCC)nc(NCCN2CCOCC2)n1` [Compound N6N9D2], in assay [1], the “Absolute mRNA transfection efficiency” value is 0.0%. For the same molecule, the “Absolute DNA transfection efficiency” value in assay [2] came to 0.0%.
`CCCCCCCCCNc1nc(NCCCCCC)nc(NCCN2CCCC2)n1` [Compound N6N9D3]: the “Absolute mRNA transfection efficiency” value in assay [1] was 0.4%. Also, the “Absolute DNA transfection efficiency” value in assay [2] amounted to 0.3%.
Take `CCCCCCCCCNc1nc(NCCCCCC)nc(NCCN2CCCCC2)n1` [Compound N6N9D4]: in assay [1], the “Absolute mRNA transfection efficiency” value is recorded as 0.3%. The “Absolute DNA transfection efficiency” value in assay [2] came to 0.0%.
On the same counts, the results for `CCCCCCCCCNc1nc(NCCCCCC)nc(NCCN2CCN(C)CC2)n1` [Compound N6N9D5] are 0.1% and 0.0%.
On the same counts, the results for `CCCCCCCCCNc1nc(NCCCCCC)nc(NCCCN(C)C)n1` [Compound N6N9D6] are 0.2% and 0.0%.
Taken in the same sequence, the figures for `CCCCCCCCCNc1nc(NCCCCCC)nc(NCCN(CC)CC)n1` [Compound N6N9D7] were 0.0% and 0.0%.
Regarding `CCCCCCCCCNc1nc(NCCCCCC)nc(NCCCN2CCOCC2)n1` [Compound N6N9D8], the “Absolute mRNA transfection efficiency” value in assay [1] is 0.0%. Also, the “Absolute DNA transfection efficiency” value in assay [2] is reported as 0.0%.
`CCCCCCCCCNc1nc(NCCCCCC)nc(NCCCN2CCN(C)CC2)n1` [Compound N6N9D9]: the “Absolute mRNA transfection efficiency” value in assay [1] is given as 0.0%. Moreover, the “Absolute DNA transfection efficiency” value in assay [2] is on record as 0.0%.
For the molecule `CCCCCCCCCNc1nc(NCCCCCC)nc(NCC2CCN(C)CC2)n1` [Compound N6N9D10], the “Absolute mRNA transfection efficiency” value in assay [1] is 0.3%. For the same molecule, the “Absolute DNA transfection efficiency” value in assay [2] is listed as 0.0%.
Taken in the same sequence, the figures for `CCCCCCCCCCCNc1nc(NCCCCCC)nc(NCCN(C)C)n1` [Compound N6N11D1] were 0.1% and 0.0%.

(Values after patent US20230123334A1, “AMINO LIPID COMPOUND, PREPARATION METHOD THEREFOR, AND APPLICATION THEREOF” (SHENZHEN SHENXIN BIOTECHNOLOGY CO., LTD., priority 2020, published 2023).)
